Target: T1, human Npt2a (Homo sapiens, UniProt Q06495)
T1 construct: expressed in transfected cells
T1 sequence (Q06495 1-639): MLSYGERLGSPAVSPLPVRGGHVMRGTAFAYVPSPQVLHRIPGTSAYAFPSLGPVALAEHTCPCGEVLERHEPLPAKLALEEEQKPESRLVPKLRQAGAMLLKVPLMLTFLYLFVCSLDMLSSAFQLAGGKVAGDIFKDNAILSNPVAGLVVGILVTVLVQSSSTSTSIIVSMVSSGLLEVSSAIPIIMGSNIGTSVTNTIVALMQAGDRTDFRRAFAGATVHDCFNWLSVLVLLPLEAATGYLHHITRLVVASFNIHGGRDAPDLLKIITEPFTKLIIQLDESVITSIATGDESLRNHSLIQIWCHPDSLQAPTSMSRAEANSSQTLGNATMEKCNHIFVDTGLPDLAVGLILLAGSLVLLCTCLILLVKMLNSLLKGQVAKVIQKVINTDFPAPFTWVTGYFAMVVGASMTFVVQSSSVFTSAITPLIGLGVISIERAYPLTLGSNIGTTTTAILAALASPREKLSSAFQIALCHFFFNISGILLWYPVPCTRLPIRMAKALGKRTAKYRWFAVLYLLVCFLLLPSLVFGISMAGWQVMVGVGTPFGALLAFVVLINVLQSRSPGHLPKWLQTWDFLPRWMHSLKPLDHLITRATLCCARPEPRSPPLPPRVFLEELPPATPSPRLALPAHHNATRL
Assay: Npt2a activity cell based assay, membrane potential dye, CHO T-REx hNpt2a cells
Details: doxycycline-induced, depolarization by sodium phosphate influx, average or median values if tested more than once
Outline: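 Doxycycline-induced (0.5 μg/mL, 24 h) CHO T-REx cells were loaded with membrane potential dye in sodium-free NHE buffer (pH 7.4) and exposed to compound (50 μM–1 nM, 5 min, room temperature).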

SMILES	IC50 [µM]
CCc1c(Nc2cc(-n3nc(C)c(C(C)(C)O)c3C)ncn2)nn(CC2CC2)c1-c1ccc(F)cc1 [Example 188, 2-[1-(6-{[1-(cyclopropylmethyl)-4-ethyl-5-(4-fluorophenyl)-1H-pyrazol-3-yl]amino}pyrimidin-4-yl)-3,5-dimethyl-1H-pyrazol-4-yl]propan-2-ol]	0.71
Cc1cc(C)n(-c2cc(Nc3nn(C)c(-c4cccc(C#N)c4)c3C)ncn2)n1 [Example 189, 3-(3-{[6-(3,5-dimethyl-1H-pyrazol-1-yl)pyrimidin-4-yl]amino}-1,4-dimethyl-1H-pyrazol-5-yl)benzonitrile]	0.074
CCc1c(Nc2cc(-n3nc(C)c(C(C)(C)O)c3C(F)F)ncn2)nn(C)c1-c1ccc(F)cc1 [Example 190, 2-[5-(difluoromethyl)-1-(6-{[4-ethyl-5-(4-fluorophenyl)-1-methyl-1H-pyrazol-3-yl]amino}pyrimidin-4-yl)-3-methyl-1H-pyrazol-4-yl]propan-2-ol]	0.21
CCc1c(Nc2cc(-n3nc(C)c(Br)c3C)ncn2)nn(C)c1-c1ccc(F)cc1 [Example 191, 6-(4-bromo-3,5-dimethyl-1H-pyrazol-1-yl)-N-[4-ethyl-5-(4-fluorophenyl)-1-methyl-1H-pyrazol-3-yl]pyrimidin-4-amine]	0.003
Cc1nn(-c2cc(Nc3c(C)c(-c4ccc(C#N)cc4)nn3CC3CC3)ncn2)c(C(F)F)c1C(=O)OC(C)(C)C [Example 192, tert-butyl 1-(6-{[3-(4-cyanophenyl)-1-(cyclopropylmethyl)-4-methyl-1H-pyrazol-5-yl]amino}pyrimidin-4-yl)-5-(difluoromethyl)-3-methyl-1H-pyrazole-4-carboxylate]	0.016
CCc1c(-c2ccc(F)cc2)nn(CC2CC2)c1Nc1cc(-n2nc(C)c(C(=O)OC(C)(C)C)c2C(F)F)ncn1 [Example 193, tert-butyl 1-(6-{[1-(cyclopropylmethyl)-4-ethyl-3-(4-fluorophenyl)-1H-pyrazol-5-yl]amino}pyrimidin-4-yl)-5-(difluoromethyl)-3-methyl-1H-pyrazole-4-carboxylate]	0.051
Cc1cc(C)n(-c2cc(Nc3nn(C)c(-c4ccc(F)cc4)c3CN3CCCC3)ncn2)n1 [Example 194, 6-(3,5-dimethyl-1H-pyrazol-1-yl)-N-[5-(4-fluorophenyl)-1-methyl-4-(pyrrolidin-1-ylmethyl)-1H-pyrazol-3-yl]pyrimidin-4-amine]	1.3
CCc1c(Nc2cc(-n3nc(C)c(Cl)c3C(C)(C)O)ncn2)nn(C)c1-c1ccc(F)cc1 [Example 195, 2-[4-chloro-1-(6-{[4-ethyl-5-(4-fluorophenyl)-1-methyl-1H-pyrazol-3-yl]amino}pyrimidin-4-yl)-3-methyl-1H-pyrazol-5-yl]propan-2-ol]	0.003
Cc1nn(-c2cc(Nc3nn(C)c(-c4ccc(C#N)cc4)c3C)ncn2)c(C)c1Cl [Example 196, 4-(3-{[6-(4-chloro-3,5-dimethyl-1H-pyrazol-1-yl)pyrimidin-4-yl]amino}-1,4-dimethyl-1H-pyrazol-5-yl)benzonitrile]	0.002
Cc1cc(C)n(-c2cc(Nc3c(C)c(-c4ccc(C#N)cc4)nn3C)ncn2)n1 [Example 197, 4-(5-{[6-(3,5-dimethyl-1H-pyrazol-1-yl)pyrimidin-4-yl]amino}-1,4-dimethyl-1H-pyrazol-3-yl)benzonitrile]	0.028
Cc1cc(C)n(-c2cc(Nc3c(C)c(-c4ccc(C#N)cc4)nn3CCC3CC3)ncn2)n1 [Example 198, 4-[1-(2-cyclopropylethyl)-5-{[6-(3,5-dimethyl-1H-pyrazol-1-yl)pyrimidin-4-yl]amino}-4-methyl-1H-pyrazol-3-yl]benzonitrile]	0.012
Cc1cc(C)n(-c2cc(Nc3c(C)nn(-c4ccc(C#N)cc4)c3C)ncn2)n1 [Example 199, 4-(4-{[6-(3,5-dimethyl-1H-pyrazol-1-yl)pyrimidin-4-yl]amino}-3,5-dimethyl-1H-pyrazol-1-yl)benzonitrile]	0.036
Cc1nn(-c2cc(Nc3c(C)nn(-c4ccc(C#N)cc4)c3C)ncn2)c(C(F)F)c1Cl [Example 200, 4-[4-({6-[4-chloro-5-(difluoromethyl)-3-methyl-1H-pyrazol-1-yl]pyrimidin-4-yl}amino)-3,5-dimethyl-1H-pyrazol-1-yl]benzonitrile]	0.008
Cc1nn(-c2cc(Nc3c(C)c(-c4ccc(C#N)cc4)nn3C)ncn2)c(C)c1Cl [Example 201, 4-(5-{[6-(4-chloro-3,5-dimethyl-1H-pyrazol-1-yl)pyrimidin-4-yl]amino}-1,4-dimethyl-1H-pyrazol-3-yl)benzonitrile]	0.006
CCc1c(-c2ccc(C#N)cc2)nn(CC2CC2)c1Nc1cc(-n2nc(C)c(C(C)=O)c2C)ncn1 [Example 202, 4-[5-{[6-(4-acetyl-3,5-dimethyl-1H-pyrazol-1-yl)pyrimidin-4-yl]amino}-1-(cyclopropylmethyl)-4-ethyl-1H-pyrazol-3-yl]benzonitrile]	0.013
CCc1c(-c2ccc(C#N)cc2)nn(CC2CC2)c1Nc1cc(-n2nc(C)c3ccncc32)ncn1 [Example 203, 4-[1-(cyclopropylmethyl)-4-ethyl-5-{[6-(3-methyl-1H-pyrazolo[3,4-c]pyridin-1-yl)pyrimidin-4-yl]amino}-1H-pyrazol-3-yl]benzonitrile]	1.4
Cc1c(-c2ccc(F)cc2)nn(CC2CC2)c1Nc1cc(-n2nc(C)c3ccncc32)ncn1 [Example 204, N-[1-(cyclopropylmethyl)-3-(4-fluorophenyl)-4-methyl-1H-pyrazol-5-yl]-6-(3-methyl-1H-pyrazolo[3,4-c]pyridin-1-yl)pyrimidin-4-amine]	0.003
CCc1c(-c2ccc(F)cc2)nn(CC2CC2)c1Nc1cc(-n2nc(C)c3ccncc32)ncn1 [Example 205, N-[1-(cyclopropylmethyl)-4-ethyl-3-(4-fluorophenyl)-1H-pyrazol-5-yl]-6-(3-methyl-1H-pyrazolo[3,4-c]pyridin-1-yl)pyrimidin-4-amine]	0.02
CCc1c(-c2ccc(F)cc2)nn(C)c1Nc1cc(-n2nc(C)c3ccncc32)ncn1 [Example 206, N-[4-ethyl-3-(4-fluorophenyl)-1-methyl-1H-pyrazol-5-yl]-6-(3-methyl-1H-pyrazolo[3,4-c]pyridin-1-yl)pyrimidin-4-amine]	0.009
Cc1nn(-c2cc(Nc3nn(CC4CC4)c(-c4ccc(F)cc4)c3Cl)ncn2)c2cnccc12 [Example 207, N-[4-chloro-1-(cyclopropylmethyl)-5-(4-fluorophenyl)-1H-pyrazol-3-yl]-6-(3-methyl-1H-pyrazolo[3,4-c]pyridin-1-yl)pyrimidin-4-amine]	0.018
Cc1nn(-c2cc(Nc3c(C)nn(-c4ccc(C#N)cc4)c3C)ncn2)c(C)c1Cl [Example 208, 4-(4-{[6-(4-chloro-3,5-dimethyl-1H-pyrazol-1-yl)pyrimidin-4-yl]amino}-3,5-dimethyl-1H-pyrazol-1-yl)benzonitrile]	0.465
CCc1c(-c2ccc(C#N)cc2)nn(C)c1Nc1cc(-n2nc(C)cc2C)ncn1 [Example 209, 4-(5-{[6-(3,5-dimethyl-1H-pyrazol-1-yl)pyrimidin-4-yl]amino}-4-ethyl-1-methyl-1H-pyrazol-3-yl)benzonitrile]	0.018
CCc1c(Nc2cc(-n3nc(C)cc3C)ncn2)nn(C)c1-c1ccc(C#N)cc1 [Example 210, 4-(3-{[6-(3,5-dimethyl-1H-pyrazol-1-yl)pyrimidin-4-yl]amino}-4-ethyl-1-methyl-1H-pyrazol-5-yl)benzonitrile]	0.013
Cc1nn(-c2cc(Nc3c(C)c(-c4ccc(C#N)cc4)nn3C)ncn2)c2c1C(=O)CC2 [Example 211, 4-(1,4-dimethyl-5-{[6-(3-methyl-4-oxo-5,6-dihydrocyclopenta[c]pyrazol-1(4H)-yl)pyrimidin-4-yl]amino}-1H-pyrazol-3-yl)benzonitrile]	0.2
Cc1cc(C)n(-c2cc(Nc3nn(CCC4CC4)c(-c4ccc(C#N)cc4)c3C)ncn2)n1 [Example 212, 4-[1-(2-cyclopropylethyl)-3-{[6-(3,5-dimethyl-1H-pyrazol-1-yl)pyrimidin-4-yl]amino}-4-methyl-1H-pyrazol-5-yl]benzonitrile]	1.17
CCOC(=O)c1c(C)nn(-c2cc(Nc3c(C)c(-c4ccc(C#N)cc4)nn3C)ncn2)c1C [Example 213, ethyl 1-(6-{[3-(4-cyanophenyl)-1,4-dimethyl-1H-pyrazol-5-yl]amino}pyrimidin-4-yl)-3,5-dimethyl-1H-pyrazole-4-carboxylate]	0.002
COc1c(Nc2cc(-n3nc(C)c4ccncc43)ncn2)n[nH]c1-c1ccc(C#N)cc1 [Example 214, 4-(4-methoxy-3-{[6-(3-methyl-1H-pyrazolo[3,4-c]pyridin-1-yl)pyrimidin-4-yl]amino}-1H-pyrazol-5-yl)benzonitrile]	0.086
CCc1c(Nc2cc(-n3nc(C)c(C4(O)CCC4)c3C)ncn2)nn(C)c1-c1ccc(F)cc1 [Example 215, 1-[1-(6-{[4-ethyl-5-(4-fluorophenyl)-1-methyl-1H-pyrazol-3-yl]amino}pyrimidin-4-yl)-3,5-dimethyl-1H-pyrazol-4-yl]cyclobutanol]	0.25

Reference: patent US11208400B2, “Substituted 6-(1H-pyrazol-1-yl)pyrimidin-4-amine derivatives and uses thereof” (Bayer Aktiengesellschaft, priority 2016, dated 2021)
